In this test the test system is CEM cells HIV-1 protection, formazan growth assay. The test is described as follows: NCI AIDS Antiviral Assay. As to conditions: for IC50: measured here: growth of uninfected CEM cells. In outline:
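Screen of anti-HIV-1 activity in human CEM cells using a formazan-based growth measurement at five drug concentrations. Hits with 50% or greater protection were repeated, and confirmation required reproducible complete protection.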

SMILES strings stand for the structures. Calls of active or inactive are those of the source.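 Rule for the calls: active = compounds giving half or more protection of infected cells from virus-caused growth loss, again on retest; inactive = the rest.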 Where a SMILES comes first, the peptide text is derived from it. [ ]: non-standard residue; d: D form. pGlu = O=C1CC[CH](C(=O)O)N1; Thz = O=C(O)[CH]1CSCN1

The results in this text go back to PubChem BioAssay AID179 (DTP/NCI, 2004).

In general, EC50 refers to the concentration needed to bring the measured effect to its halfway point. As usually defined, the IC50 is the concentration at which inhibition is half-maximal. Higher therefore signals weaker potency.

With `CCN1CCC(O)(c2ccccc2)C(C(=O)c2ccccc2)C1` (stereo not drawn), the EC50 was more than 646 µM and the IC50 came out at 33.9 µM.

Turning to `CCOC(=O)c1c(NS(=O)(=O)c2ccc(C)cc2)sc(C)c1-c1ccccc1`, the EC50 is more than 200 µM and the concentration for half-maximal inhibition (IC50) stood at 21.9 µM.

`CC1(C)OC(CCO)CN1C(=O)OCc1ccccc1` (stereo not drawn) gave an EC50 of 195 µM and an IC50 of more than 200 µM.

On to `CSc1ncnc2nc(C(O)c3ccccc3)[nH]c12` (stereo not drawn), for which the result was inactive.

For the molecule `C[C@H](CS)C(=O)N1c2ccccc2C[C@H]1C(=O)O`, the EC50 was more than 200 µM and the IC50 was more than 200 µM.

Regarding `O=c1ccn(C2CC(F)C(CO)S2)c(=O)[nH]1` (stereo not drawn), the EC50 was more than 25.1 µM and the IC50 is more than 25.1 µM.

Consider `N#CCc1ccc(C(C#N)/C(CCCC(=O)Nc2cccc([N+](=O)[O-])c2)=N\NC(=O)NN)cc1` (stereo not drawn), for which the EC50 is more than 389 µM and the IC50 is more than 389 µM.

As for `Cc1ccc(S(=O)(=O)Oc2nc3ccccc3nc2OS(=O)(=O)c2ccc(C)cc2)cc1`, the EC50 was more than 200 µM and the IC50 was 38.9 µM.

With `COc1ccccc1/C=C1\C(=O)N(C(=O)c2ccc(NC(C)=O)cc2)N=C1C`, the EC50 is more than 19.1 µM and the IC50 was more than 19.1 µM.

On to `COc1ccc(N=C(C)C(C)=Nc2ccc(OC)cc2)cc1`, for which the result was inactive.

`CNC(=O)c1n[nH]n(C2CCCCC2)c1=S`: the outcome was inactive.

With `Nc1nonc1-c1noc(-c2nonc2N)[n+]1[O-]`, the EC50 was more than 200 µM and the IC50 worked out at 12.3 µM.

As for `CCOc1ccc(NC(=O)CC2SC(=Nc3ccc(C)cc3C)NC2=O)cc1` (stereo not drawn), the EC50 was more than 66.1 µM and the IC50 was more than 66.1 µM.

Regarding `O=[N+]([O-])/C=C/c1c(Cl)cccc1Cl`, the result was inactive.

For `CCc1c(Cc2cc(C)cc(C)c2)n(COCCCCOC(=O)c2ccccc2)c(=O)[nH]c1=O`, the EC50 is 0.00692 µM and the IC50 stood at 2 µM.

`CCN(CC)C1C=CCC2C1S(=O)(=O)C2(C)C` (stereo not drawn): the EC50 is more than 977 µM and the concentration for half-maximal inhibition (IC50) is more than 977 µM.

Turning to `COC1(C)C(=O)N(C)C1c1ccccc1` (stereo not drawn), the EC50 was more than 200 µM and the IC50 is more than 200 µM.

`Cc1cn2c(n1)sc1ccccc12`: the EC50 is more than 200 µM and the IC50 is more than 200 µM.

As to `CCC(CCl)NC(=O)Nc1ccc(S(=O)(=O)c2ccc([N+](=O)[O-])cc2)cc1` (stereo not drawn), the EC50 is more than 11 µM and the IC50 was determined as 8.71 µM.

For `NC(N)=NS(=O)(=O)c1ccc(NC(=O)c2cccc3c(Nc4ccc(S(N)(=O)=O)cc4)c4ccccc4nc23)cc1`, the EC50 is more than 43.7 µM and the IC50 is more than 43.7 µM.

Take `COC(=O)C1CN=CN1CCc1ccccc1` (stereo not drawn): the EC50 is more than 200 µM and the IC50 is more than 200 µM.

On to `NCCSSSSCCN`, for which the EC50 was more than 132 µM and the IC50 was found to be 34.7 µM.

For the molecule `CN(NC(=O)c1ccco1)C1=NCCN1`, the EC50 is more than 200 µM and the IC50 is more than 200 µM.

`N#Cc1ccccc1NC(=O)C(=O)C(C(=O)c1ccncc1)C1OC(=O)c2ccccc21` (stereo not drawn): the EC50 is more than 589 µM and the IC50 was more than 589 µM.

On to `COc1ccc2oc3cc(O)cc(OC)c3c(=O)c2c1O`, for which the EC50 was more than 200 µM and the IC50 worked out at 145 µM.

As to `C[C@]12Cc3cn[nH]c3C(=O)C1CC[C@@H]1C2CC[C@@]2(C)C1CC[C@]2(C)O` (stereo partly drawn), the EC50 was more than 38 µM and the IC50 is more than 38 µM.

As for `CCC1CN2CCc3cc(OC)c(OC)cc3C2CC1CC1c2cc(OC)c(OC)cc2CCN1C(=O)C1CCCN1` (stereo not drawn), the result was inactive.

Take `CN(C)CCN1C(=O)C2C3CCC(C)(O3)C2C1=O` (stereo not drawn): the EC50 is more than 200 µM and the IC50 is more than 200 µM.

In the case of `Cc1ccc2c(c1)NC(=O)C(N=[N+]=[N-])(c1ccccc1)C2=O` (stereo not drawn), the EC50 is more than 200 µM and the IC50 was found to be 49 µM.

Regarding `CC1=C(C(=O)Nc2cc(=O)n(C)c(=O)n2C)C(c2cccc([N+](=O)[O-])c2)C(C(=O)Nc2cc(=O)n(C)c(=O)n2C)=C(C)N1`, the EC50 is more than 31.6 µM and the IC50 is more than 31.6 µM.

On to `Cc1ccc2c(C3Cc4ccccc4N3C(=O)/C=C\C(=O)O)c(C)[nH]c2c1` (stereo not drawn), for which the EC50 is more than 363 µM and the IC50 was found to be 60.3 µM.

In the case of `O=C1C[C@H]2CCCN2[C@@H](c2ccccc2)C1`, the EC50 is more than 603 µM and the IC50 is more than 603 µM.

`Cc1cc(C)c(C2=[N+]([O-])ON3CCc4ccccc4C23)c(C)c1` (stereo not drawn): the EC50 was more than 115 µM and the IC50 was more than 115 µM.

`CCOC(=O)NNC(=O)NCCNC(=O)NNC(=O)OCC`: the EC50 was more than 200 µM and the IC50 was more than 200 µM.

Consider `O=C1CCC(C(=O)N2CSCC2C(=O)O)N1` (stereo not drawn) ([pGlu]-[Thz]-OH; configuration not given here), for which the EC50 is more than 200 µM and the IC50 was more than 200 µM.

As to `CCc1oc2ccccc2c1C(=O)c1cc(Br)c(O)c(Br)c1`, the EC50 was more than 200 µM and the IC50 is 34.7 µM.

Turning to `O=C1OCC(O)=C1C(c1ccc(Cl)cc1)c1cc2c(cc1O)OCO2` (stereo not drawn), the EC50 is more than 200 µM and the IC50 was more than 200 µM.

Consider `COc1ccc(C2=NNC(=O)CC2)cc1OC`, for which the EC50 was more than 1070 µM and the IC50 stood at 550 µM.

In the case of `CCOC1CC(C)N(C(=O)c2ccccc2)O1` (stereo not drawn), the EC50 is more than 200 µM and the IC50 was more than 200 µM.

For the molecule `CC(=O)OC1=NC(C)c2c1cc(OC(C)=O)[nH]c2=O` (stereo not drawn), the EC50 is more than 14.5 µM and the IC50 is more than 14.5 µM.

Consider `Cc1ccc(C2(c3ccc(Cl)cc3)c3ccccc3C3=NCCN32)cc1` (stereo not drawn), for which the EC50 is more than 200 µM and the IC50 turned out to be 11 µM.

With `O=C1CC(c2c[nH]c3ccccc23)C(=O)N1c1ccccc1` (stereo not drawn), the outcome was inactive.

As for `CC1CCC2c3c([nH]c4ccccc34)C3C(=O)N(C4CCCCC4)C(=O)C3C2C1` (stereo not drawn), the EC50 is more than 200 µM and the IC50 was found to be 9.33 µM.

In the case of `CC(C)c1cccc(C(C)C)c1NC(=O)/C(CC(=O)CC(c1ccccc1)c1c(O)c2ccccc2oc1=O)=N/O` (stereo not drawn), the EC50 is more than 89.1 µM and the IC50 is more than 89.1 µM.

Consider `Cc1cc(-c2cc(C)c(N)c(S(=O)(=O)O)c2)cc(S(=O)(=O)O)c1N`, for which the result was inactive.

Consider `CCSCC1OC2OC3C(CSCC)OC(OC4C(CSCC)OC(OC5C(CSCC)OC(OC6C(CSCC)OC(OC7C(CSCC)OC(OC8C(CSCC)OC(OC1C(OS(=O)(=O)O)C2OS(=O)(=O)O)C(OS(=O)(=O)O)C8OS(=O)(=O)O)C(OS(=O)(=O)O)C7OS(=O)(=O)O)C(OS(=O)(=O)O)C6OS(=O)(=O)O)C(OS(=O)(=O)O)C5OS(=O)(=O)O)C(OS(=O)(=O)O)C4OS(=O)(=O)O)C(OS(=O)(=O)O)C3OS(=O)(=O)O` (stereo not drawn), for which the EC50 is 2.75 µM and the 50% inhibitory concentration (IC50) stood at 50.1 µM.

`O=C(O)c1ccc(C(=O)c2ccccc2C(=O)O)cc1C(=O)O` displayed an EC50 of 19.1 µM and a half-maximal inhibitory concentration (IC50) of more than 200 µM.

Regarding `COc1ccc(-c2c3ccccc3c(-c3ccc(OC)cc3)c3ccccc23)cc1`, the EC50 was more than 2.69 µM and the IC50 was more than 2.69 µM.

For `CCCCCCCCCCCCCCCCOP(=O)(O)Oc1ccc(/C=C\c2ccc(OP(=O)(O)OCCCCCCCCCCCCCCCC)cc2)cc1`, the outcome was inactive.

Consider `Cc1cc2c(cc1C)[n+](=O)c(C(=O)C/C(=N/NC(=O)c1ccccc1O)C(=O)Nc1ccccc1C(C)C)c(C)n2[O-]`, for which the EC50 is more than 229 µM and the IC50 is 75.9 µM.

On to `CCOC1c2cc(C(C)C)c(O)c(O)c2[C@@]23CCCC(C)(C)C2C1OC3=O` (stereo partly drawn), for which the EC50 was more than 200 µM and the IC50 came out at 9.33 µM.

As to `NCCS/C=C/C(=O)OCc1ccc(Br)cc1`, the EC50 is more than 708 µM and the IC50 was found to be 97.7 µM.

Take `CCOC(=O)C(C)c1nc2cc(F)c(N3CCOCC3)cc2[nH]c1=O` (stereo not drawn): the EC50 was more than 200 µM and the IC50 came out at 95.5 µM.

As to `CCCNC1=C2C[C@@H](C)C[C@@H](OC)[C@@H](OC(=O)CCCN)[C@H](C)/C=C(\C)[C@@H](OC(N)=O)[C@H](OC)/C=C\C=C(/C)C(=O)NC(=CC1=O)C2=O`, the EC50 is more than 200 µM and the IC50 stood at 11.5 µM.

On to `c1ccc(-c2ccnc3c2ccc2c(-c4ccccc4)ccnc23)cc1`, for which the EC50 is more than 21.9 µM and the IC50 worked out at 11.5 µM.

As to `CC1(C)OC2OC3C4COC(SSC56OCC(O5)C5OC7OC(C)(C)OC7C5O6)(O4)OC3C2O1` (stereo not drawn), the EC50 was more than 200 µM and the IC50 was determined as 26.3 µM.

For `CN(CC1(CO)CCC1)c1cc(Cl)nc(N)n1`, the EC50 was more than 200 µM and the half-inhibitory concentration (IC50) worked out at 53.7 µM.

On to `CN(C)CC1CCCCCCCCCCCCC(CN(C)C)C1=O` (stereo not drawn), for which the EC50 is more than 21.4 µM and the IC50 was more than 21.4 µM.

As for `N#CC(C#N)=Cc1cccc([N+](=O)[O-])c1`, the EC50 is more than 178 µM and the IC50 worked out at 15.5 µM.

With `O=S(=O)(O)CC(O)CN(CCO)CCO` (stereo not drawn), the EC50 was more than 200 µM and the IC50 was more than 200 µM.

Regarding `N#CC1C2C=CC(CCC2)C1C#N` (stereo not drawn), the EC50 was more than 200 µM and the IC50 was more than 200 µM.

As to `O=NNc1cnccn1`, the EC50 is more than 1700 µM and the IC50 is more than 1700 µM.

Regarding `N#Cc1c(-c2ccccc2)ssc1=S`, the EC50 was more than 200 µM and the IC50 was 14.1 µM.

For the molecule `C=CCNC(=O)N(CCCCC(NC(C)=O)C(=O)NCc1ccccc1)Cc1ccccc1` (stereo not drawn), the EC50 was more than 550 µM and the IC50 came to 372 µM.

For `C=Cc1c(Cl)nc(C)c(C)c1-c1ccc(OC)c(OC)c1OCc1ccccc1`, the EC50 is more than 200 µM and the IC50 was 25.1 µM.

In the case of `O=C1N=C2SC(=S)NC(=S)N2NC12c1ccccc1-c1ccccc12`, the EC50 was more than 200 µM and the IC50 amounted to 32.4 µM.

With `CN(O)C(=O)/C=C/c1ccc(OCc2cccc(Cl)c2)cc1`, the EC50 was more than 200 µM and the IC50 came to 46.8 µM.

`COc1cc(OC)c2nccc(NCCCN(C)C)c2c1[N+](=O)[O-]`: the EC50 was more than 200 µM and the IC50 was determined as 93.3 µM.

In the case of `COc1ccc2nc3ccccc3c(NCCCN(C)CCCl)c2c1`, the EC50 was more than 200 µM and the IC50 was 0.501 µM.

Take `O=C(O)c1cc(S(=O)(=O)N=NC=C2c3ccccc3N(O)c3ccccc32)ccc1O`: the result was inactive.

For `Cc1cn(C(CO)OC(CO)CN(O)C2C3CC4CC(C3)CC2C4)c(=O)[nH]c1=O` (stereo not drawn), the EC50 is more than 200 µM and the IC50 was more than 200 µM.
